US20260216368A1, “BIS-ESTER AND AMIDE CATIONIC LIPIDS” (SANOFI PASTEUR INC., priority 2022, published 2026)

Key:
[1] = DLS size and polydispersity of hEPO mRNA lipid nanoparticles; format: physicochemical; conditions: hEPO mRNA LNP, Cationic Lipid:DMG-PEG2000:Cholesterol:DOPE=40:1.5:28.5:30, N/P ratio 4, Process A
Procedure: The lipid nanoparticles in the examples of the present invention were formulated using Process A of WO 2018/089801 (see, e.g., Example 1 and FIG. 1 of WO 2018/089801). Process A (“A”) relates to a conventional method of encapsulating mRNA by mixing mRNA with a mixture of lipids, without first pre-forming the lipids into lipid nanoparticles. In an exemplary process, an ethanol lipid solution and an aqueous buffered solution of mRNA were prepared separately. A solution of mixture of lipids (cationic lipid, helper lipids, zwitterionic lipids, PEG lipids etc.) was prepared by dissolving lipids in ethanol. The mRNA solution was prepared by dissolving the mRNA in citrate buffer. Then, these two solutions were mixed using a pump system. In some instances, the two solutions were mixed using a gear pump system. In certain embodiments, the two solutions were mixing using a ‘T’ junction (or “Y” junction). The mixture was then purified by diafiltration with a TFF process. The resultant formulation concentrated and stored at 2-8° C. until further use.
(§1) Lipid nanoparticle formulations of Table 1 were prepared by Process A. More specifically, an ethanolic solution of a mixture of lipids including DMG-PEG-2000, cationic lipid, cholesterol, and phosphatidylethanolamine (DOPE) in a ratio of 1.5:40:28.5:30 were combined with an aqueous buffered solution (1 mM Citrate and 150 mM NaCl) of target mRNA at an acidic pH (4.5) under controlled conditions to yield a dispersion of uniform lipid nanoparticles (LNPs). Upon ultrafiltration and diafiltration into the final buffer, the resulting nanoparticle dispersions were diluted to required concentration using the final buffer (10% Trehalose), sterile filtered and stored frozen at −80° C. until use.
All of the lipid nanoparticle formulations comprised hEPO mRNA and the different lipids in following mol % ratios: Cationic Lipid: DMG-PEG2000; Cholesterol:DOPE=40:1.5:28.5:30.
DLS measurements were performed using a Malvern Instruments Zetasizer with a backscattering detector angle of 173° and a 4-mW, 633-nm He—Ne laser (Worcestershire, UK). The samples were analyzed by diluting in 10% Trehalose and measuring the size and Poly dispersity Index (PDI) in an optical grade polystyrene cuvette.
The following lipid nanoparticles were formulated according to Example 51.
as §1, with “Table 3” for “Table 1”

[2] = RiboGreen assay, % encapsulation of mRNA in lipid nanoparticles; format: physicochemical; conditions: hEPO mRNA LNP, Cationic Lipid:DMG-PEG2000:Cholesterol:DOPE=40:1.5:28.5:30, N/P ratio 4, Process A
Source text: In embodiments, the lipid nanoparticle encapsulates a nucleic acid, optionally an mRNA encoding a peptide or protein. In embodiments, the peptide is an antigen. In embodiments, the lipid nanoparticle encapsulates an mRNA encoding a peptide or protein. As used herein, the phrase “encapsulation percentage” refers to the fraction of therapeutic agent (e.g. mRNA) that is effectively encapsulated within a liposomal-based vehicle (e.g. a lipid nanoparticle) relative to the initial fraction of therapeutic agent present in the lipid phase. In embodiments, the lipid nanoparticles have an encapsulation percentage for mRNA of at least 50%. In embodiments, the lipid nanoparticles have an encapsulation percentage for mRNA of at least 55%. In embodiments, the lipid nanoparticles have an encapsulation percentage for mRNA of at least 60%. In embodiments, the lipid nanoparticles have an encapsulation percentage for mRNA of at least 65%. In embodiments, the lipid nanoparticles have an encapsulation percentage for mRNA of at least 70%. In embodiments, the lipid nanoparticles have an encapsulation percentage for mRNA of at least 75%. In embodiments, the lipid nanoparticles have an encapsulation percentage for mRNA of at least 80%. In embodiments, the lipid nanoparticles have an encapsulation percentage for mRNA of at least 85%. In embodiments, the lipid nanoparticles have an encapsulation percentage for mRNA of at least 90%. In embodiments, the lipid nanoparticles have an encapsulation percentage for mRNA of at least 95%. In embodiments, the encapsulation percentage is calculated by performing the Ribogreen assay (Invitrogen) with and without the presence of 0.1% Triton-X 100.
The RiboGreen Assay is a fluorescence-based method for the determination of mRNA concentration (Total and Free) and % encapsulation using Quant-iT™ RiboGreen® RNA reagent in mRNA containing lipid nanoparticles.
• To each of the standards (Blank, mRNA-1, mRNA-2. mRNA-3, mRNA-4, mRNA-5) and Samples (free mRNA and total mRNA), add 1.0 mL of 200-fold Ribogreen Reagent Solution and gently mix by inversion. This is a 2× Dilution. • Add 200 μL of each standard and sample in triplicate using the reverse pipetting technique in a 96-well Costar Black with Clear Background Plate. Ensure no bubbles are present in the plate before the fluorescence reading. • Read the fluorescence signal using the below instrument parameters: • Read Type: Fluorescence, Bottom Read • Excitation: 485 nm; Cut-off: 515 nm; Emission: 530 nm • Plate Type: 96-well Costar Black with Clear Background
The average fluorescence from each calibration standard is plotted against the concentration to generate a linear calibration curve using the MS Excel software. The coefficient of determination (R^2) of calibration curve must be R^2>0.99.
[formula] • Where, • Y=average fluorescence value • m: slope • x: concentration (pg/mL) • c: y-intercept • Using the linear equation, calculate the concentration of free and total mRNA concentration in the test sample by replacing the y value in the equation with the average fluorescence value of each respective sample • Once the concentration is determined, the actual concentration in the sample can be back-calculated by multiplying the concentration in the test sample with the dilution factor (DF) as follows:
[formula] • Concentration of encapsulated mRNA can be determined by subtracting the concentration of free mRNA from the total mRNA. • % Encapsulation can then be calculated by taking the ratio of encapsulated mRNA over total mRNA and multiplying the result with 100.

[3] = tested on: Human erythropoietin (hEPO) levels in sera; experiment: Delivery of hEPO mRNA by intramuscular administration of lipid nanoparticles; serum hEPO by ELISA; format: in vivo, Mouse; conditions: for hEPO 6 Hr (ng/mL) Mean / hEPO 24 Hr (ng/mL) Mean: serum, 0.1 μg/animal hEPO mRNA LNP, n=4; for hEPO 6 Hr (ng/mL) Mean: 6 hours post dose; for in vivo hEPO protein production (FIG. 51): intramuscular delivery of hEPO mRNA using lipid nanoparticles comprising the compound, result in words; for hEPO 24 Hr (ng/mL) Mean: 24 hours post dose
Procedure: WO2022/099003 A1 describes an in vivo assay for intramuscular administration (e.g. on page 46, paragraph [00206]). Further details of the intramuscular experiment performed in this application are provided below.
Treatment Regimen: On Day 1, animals from Groups 1-8 were dosed via intramuscular injection while under light isoflurane anesthesia according to the study design table above. Animals in Groups 2-8 were injected with EPO in the right leg only. Group 1 animals received saline control.
Interim Sample Collections: Interim whole blood (~50 μL) was collected by tail snip or saphenous vein at 6 hours post dose administration (±5%). Blood samples were collected into serum separator tubes, allowed to clot at room temperature for at least 10 minutes, centrifuged at ambient temperature at minimum 1000 g for 10 minutes and the serum was extracted. All serum samples were stored at nominally −70° C. until analysis hEPO by the Testing Facility. The results of the EPO analysis were included in the Data Submission.
Terminal Blood Collections: Whole blood was collected via cardiac puncture into serum separator tube, allowed to clot at room temperature for at least 10 minutes, centrifuged at ambient temperature at minimum 1000 g for 10 minutes and the serum was extracted. Serum samples were stored at nominally −70° C. until analyzed for hEPO by the Test Facility.
ELISA Assay: Human erythropoietin (hEPO) levels in sera samples were determined by ELISA kit (R&D systems, Cat #DEP-00) according to the manufactory instruction and the results were included in the Data Submission. The “shaker” protocol was used. The serum samples were diluted between 1:40 and 1:100.
The ability of the further exemplary lipid nanoparticles in Example 54 to deliver hEPO mRNA by intramuscular administration was tested in accordance with the experimental protocol set out in Example 52.

[4] = single IM injection, female BALB/cJ mice

Row | SMILES | PDI ([1]; Table 3, further LNPs) | Size (nm) ([1]; Table 3, further LNPs) | Encapsulation Percentage (%) ([2]; Table 3, further LNPs) | hEPO 6 Hr (ng/mL) Mean ([3]; third occasion, IM, mice) [ng/mL] | hEPO 6 Hr (ng/mL) Mean ([3]; first occasion, IM, mice) [ng/mL] | PDI ([1]; Table 1) | Size (nm) ([1]; Table 1) | Encapsulation Percentage (%) ([2]; Table 1) | in vivo hEPO protein production (FIG. 51) [3] | hEPO 6 Hr (ng/mL) Mean [3, 4] [ng/mL] | hEPO 24 Hr (ng/mL) Mean [3, 4] [ng/mL]
1 | CCCCCCCCCCC(O)CN(CCCOC(=O)N[C@@H](Cc1ccccc1)C(=O)OCCCN(CC(O)CCCCCCCCCC)CC(O)CCCCCCCCCC)CC(O)CCCCCCCCCC (stereo partly drawn) [Compound XCVII, 3-(bis(2-hydroxydodecyl)amino)propyl ((3-(bis(2-hydroxydodecyl)amino)propoxy)carbonyl)-L-phenylalaninate] | 0.101 | 125 | 83 | 16.0 | – | – | – | – | – | – | –
2 | CCCCCCCCC(O)CN(CCCNC(=O)CC(C)(O)CC(=O)NCCCN(CC(O)CCCCCCCC)CC(O)CCCCCCCC)CC(O)CCCCCCCC (centres unmarked) [LXXXVIII] | 0.134 | 100 | 84 | – | 51.7 | – | – | – | – | – | –
3 | CCCCCCCCC(O)CN(CCCOC(=O)CN(C)CC(=O)OCCCN(CC(O)CCCCCCCC)CC(O)CCCCCCCC)CC(O)CCCCCCCC (centres unmarked) [XII] | – | – | – | – | – | 0.091 | 110 | 46 | high levels of in vivo hEPO protein production | 35.0 | 15.1
4 | CCCCCCCCCCC(O)CN(CCCCOC(=O)CN(C)CC(=O)OCCCCN(CC(O)CCCCCCCCCC)CC(O)CCCCCCCCCC)CC(O)CCCCCCCCCC (centres unmarked) [XIV] | – | – | – | – | – | 0.098 | 101 | 67 | high levels of in vivo hEPO protein production | 33.9 | 18.3
5 | CCCCCC/C=C\COC(=O)CCCCCC(O)CN(CCCOC(=O)CN(C)CC(=O)OCCCN(CC(O)CCCCCC(=O)OC/C=C\CCCCCC)CC(O)CCCCCC(=O)OC/C=C\CCCCCC)CC(O)CCCCCC(=O)OC/C=C\CCCCCC (centres unmarked) [XV] | – | – | – | – | – | 0.052 | 134 | 33 | high levels of in vivo hEPO protein production | 31.9 | 15.1
6 | CCCCCCCCCCC(O)CN(CCCOC(=O)CCC(C)C(=O)OCCCN(CC(O)CCCCCCCCCC)CC(O)CCCCCCCCCC)CC(O)CCCCCCCCCC (centres unmarked) [XXXII] | – | – | – | – | – | 0.124 | 106 | 78 | high levels of in vivo hEPO protein production | 17.0 | 10.3
